# In ChEMBL document CHEMBL1201862, “PubChem BioAssay data set” (2004):
#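 All cell lines were grown in 96-well plates and treated with compound for 48 hours. At the GI50, growth is halved.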 Activity calls are given as the source filed them. Cut-off read from the data, not from the text of the source: active = GI50 up to about 1.1 µM and inactive = higher.
# What was measured:
# Experiment in all cases: DTP human tumour cell line panel, 48 h
# SF-539 = system: SF-539
# RPMI-8226 = system: RPMI-8226
# KM12 = system: KM12
# OVCAR-4 = system: OVCAR-4
# SNB-75 = system: SNB-75
# BT-549 = system: BT-549
# SF-295 = system: SF-295
# COLO 205 = system: COLO 205
# ACHN = system: ACHN
# 786-0 = system: 786-0
# MOLT-4 = system: MOLT-4
# T47D = system: T47D
# SR = system: SR
# SF-268 = system: SF-268
# CAKI-1 = system: CAKI-1
# NCI-H226 = system: NCI-H226
# RXF 393 = system: RXF 393
# Malme-3M = system: Malme-3M
# EKVX = system: EKVX
Structure (SMILES),GI50 (SF-539),GI50 (RPMI-8226),GI50 (KM12),GI50 (OVCAR-4),GI50 (SNB-75),GI50 (BT-549),GI50 (SF-295),GI50 (COLO 205),GI50 (ACHN),GI50 (786-0),GI50 (MOLT-4),GI50 (T47D),GI50 (SR),GI50 (SF-268),GI50 (CAKI-1),GI50 (NCI-H226),GI50 (RXF 393),GI50 (Malme-3M),GI50 (EKVX)
O=c1c2ccccc2oc2nc3n(c(=O)c12)CCCS3,> 100 µM (inactive),> 100 µM (inactive),> 100 µM (inactive),> 100 µM (inactive),63.4 µM (inactive),> 100 µM (inactive),> 100 µM (inactive),> 100 µM (inactive),> 100 µM (inactive),> 100 µM (inactive),> 100 µM (inactive),> 100 µM (inactive),> 100 µM (inactive),> 100 µM (inactive),> 100 µM (inactive),> 100 µM (inactive),> 100 µM (inactive),> 100 µM (inactive),> 100 µM (inactive)
Cc1cc(O)cc2c1c(=O)c1ccccc1n2C,32.5 µM (inactive),> 100 µM (inactive),> 100 µM (inactive),80.2 µM (inactive),87.5 µM (inactive),50.6 µM (inactive),52.2 µM (inactive),> 100 µM (inactive),89.7 µM (inactive),44.4 µM (inactive),55.1 µM (inactive),73.5 µM (inactive),48.5 µM (inactive),31.7 µM (inactive),> 100 µM (inactive),49.1 µM (inactive),41.5 µM (inactive),,> 100 µM (inactive)
CCCCCC(=O)Nc1[nH]nnc1C#N,> 100 µM (inactive),> 100 µM (inactive),> 100 µM (inactive),> 100 µM (inactive),> 100 µM (inactive),> 100 µM (inactive),> 100 µM (inactive),> 100 µM (inactive),> 100 µM (inactive),> 100 µM (inactive),> 100 µM (inactive),> 100 µM (inactive),> 100 µM (inactive),> 100 µM (inactive),> 100 µM (inactive),> 100 µM (inactive),> 100 µM (inactive),> 100 µM (inactive),> 100 µM (inactive)
O=C1C[C@@H](Sc2ccccc2)C2(OCCO2)C2ON3CCCC[C@H]3[C@H]12 (stereo partly drawn),1.94 µM (inactive),3.07 µM (inactive),4.48 µM (inactive),7.73 µM (inactive),12.4 µM (inactive),5.81 µM (inactive),15.9 µM (inactive),7.8 µM (inactive),2.49 µM (inactive),3.53 µM (inactive),0.989 µM (active),16.2 µM (inactive),0.927 µM (active),7.55 µM (inactive),7.71 µM (inactive),13.8 µM (inactive),4.48 µM (inactive),8.41 µM (inactive),10.8 µM (inactive)
COC(=O)/C=C1/OC(c2ccc(C)cc2C)=CC1=O,17.2 µM (inactive),3.63 µM (inactive),17.6 µM (inactive),> 10 µM (inactive),12.9 µM (inactive),16.3 µM (inactive),,16.6 µM (inactive),15.8 µM (inactive),11 µM (inactive),3.55 µM (inactive),20.1 µM (inactive),3.4 µM (inactive),17.8 µM (inactive),19.5 µM (inactive),19.5 µM (inactive),12.1 µM (inactive),16.4 µM (inactive),65 µM (inactive)
Cn1c(-c2ccc(C=O)o2)ccc1-c1ccc(C=O)o1,34.5 µM (inactive),57.1 µM (inactive),36.2 µM (inactive),53.1 µM (inactive),39.5 µM (inactive),55.8 µM (inactive),58.7 µM (inactive),87.7 µM (inactive),31.7 µM (inactive),61.1 µM (inactive),24.8 µM (inactive),26.1 µM (inactive),30.9 µM (inactive),,12.5 µM (inactive),76.4 µM (inactive),> 100 µM (inactive),31.7 µM (inactive),54.1 µM (inactive)
N=c1oc2c(Cl)cc(Cl)cc2cc1C(=O)Nc1cccc2ccccc12,,10 µM (inactive),53.8 µM (inactive),2.49 µM (inactive),3.2 µM (inactive),30.1 µM (inactive),18.7 µM (inactive),7.57 µM (inactive),3.52 µM (inactive),5.71 µM (inactive),7.48 µM (inactive),5.2 µM (inactive),12.4 µM (inactive),18 µM (inactive),10.6 µM (inactive),19.3 µM (inactive),16.7 µM (inactive),26.3 µM (inactive),8.93 µM (inactive)
CN(C)c1ccc(/C=N\NC(=O)c2ccccc2Nc2ccccc2C(=O)N/N=C/c2ccc(N(C)C)cc2)cc1,20 µM (inactive),> 100 µM (inactive),> 100 µM (inactive),> 100 µM (inactive),> 100 µM (inactive),> 100 µM (inactive),> 100 µM (inactive),97.5 µM (inactive),> 100 µM (inactive),> 100 µM (inactive),> 100 µM (inactive),> 100 µM (inactive),> 100 µM (inactive),> 100 µM (inactive),> 100 µM (inactive),> 100 µM (inactive),> 100 µM (inactive),38.5 µM (inactive),> 100 µM (inactive)
CCCN(CCc1ccc(-c2ccccc2)cc1)CCc1ccc2nn[nH]c2c1,10.7 µM (inactive),4.52 µM (inactive),11.9 µM (inactive),14.6 µM (inactive),12.3 µM (inactive),8.2 µM (inactive),12 µM (inactive),2.55 µM (inactive),12.8 µM (inactive),11.7 µM (inactive),3.75 µM (inactive),4.04 µM (inactive),3.74 µM (inactive),19.2 µM (inactive),12.6 µM (inactive),15.8 µM (inactive),12.2 µM (inactive),8.79 µM (inactive),13.5 µM (inactive)
COc1ccc(CNc2ccn(C3OC(CO)C(O)C3O)c(=O)n2)cc1 (stereo not drawn),> 100 µM (inactive),86.9 µM (inactive),45.9 µM (inactive),37.2 µM (inactive),,62.5 µM (inactive),> 100 µM (inactive),> 100 µM (inactive),> 100 µM (inactive),> 100 µM (inactive),45.1 µM (inactive),25.4 µM (inactive),> 100 µM (inactive),> 100 µM (inactive),> 100 µM (inactive),> 100 µM (inactive),> 100 µM (inactive),> 100 µM (inactive),73.5 µM (inactive)
Nc1ccc(Cc2ccc(N)c(C(=O)O)c2)cc1C(=O)O,> 100 µM (inactive),> 100 µM (inactive),> 100 µM (inactive),> 100 µM (inactive),> 100 µM (inactive),> 100 µM (inactive),> 100 µM (inactive),> 100 µM (inactive),> 100 µM (inactive),> 100 µM (inactive),,> 100 µM (inactive),> 100 µM (inactive),> 100 µM (inactive),> 100 µM (inactive),> 100 µM (inactive),> 100 µM (inactive),> 100 µM (inactive),> 100 µM (inactive)
C#CCOC(=O)c1ccc(OC(C)=O)cc1,> 100 µM (inactive),> 100 µM (inactive),> 100 µM (inactive),> 100 µM (inactive),> 100 µM (inactive),> 100 µM (inactive),> 100 µM (inactive),> 100 µM (inactive),> 100 µM (inactive),> 100 µM (inactive),> 100 µM (inactive),> 100 µM (inactive),> 100 µM (inactive),> 100 µM (inactive),> 100 µM (inactive),> 100 µM (inactive),> 100 µM (inactive),,> 100 µM (inactive)
COc1ccccc1N1CCN(CCCCNC(=O)c2ccc([N+](=O)[O-])o2)CC1,6.1 µM (inactive),19.1 µM (inactive),5.53 µM (inactive),12.5 µM (inactive),,4.19 µM (inactive),11.6 µM (inactive),2.38 µM (inactive),11.7 µM (inactive),6.82 µM (inactive),23.1 µM (inactive),14.3 µM (inactive),5.61 µM (inactive),16.7 µM (inactive),13.4 µM (inactive),11.7 µM (inactive),8.57 µM (inactive),2.81 µM (inactive),16 µM (inactive)
COc1ccc2c(c1)CCN=C2Cc1ccccc1CCCl,20.5 µM (inactive),17.6 µM (inactive),23.1 µM (inactive),22 µM (inactive),31.3 µM (inactive),44.2 µM (inactive),20.7 µM (inactive),17.5 µM (inactive),30.1 µM (inactive),25.3 µM (inactive),23.7 µM (inactive),17.7 µM (inactive),51.2 µM (inactive),21.8 µM (inactive),22.1 µM (inactive),26.2 µM (inactive),27.8 µM (inactive),,37.2 µM (inactive)
NC(CCP(=O)(O)O)C(=O)O (stereo not drawn),,> 100 µM (inactive),> 100 µM (inactive),> 100 µM (inactive),,> 100 µM (inactive),> 100 µM (inactive),,> 100 µM (inactive),> 100 µM (inactive),> 100 µM (inactive),> 100 µM (inactive),> 100 µM (inactive),> 100 µM (inactive),> 100 µM (inactive),> 100 µM (inactive),> 100 µM (inactive),> 100 µM (inactive),> 100 µM (inactive)
